These results are taken from US8445674B2, “Heterocyclyl compounds” (Hoffmann-La Roche Inc, priority 2009, dated 2013).

In this assay the target is T1, human chemokine receptor 2 isoform B (Homo sapiens, UniProt P41597).
T1 construct: host or cells: CHOK1-CCR2B-A5 cells (CHO-K1)
T1 sequence (P41597 1-360 isoform P41597-2): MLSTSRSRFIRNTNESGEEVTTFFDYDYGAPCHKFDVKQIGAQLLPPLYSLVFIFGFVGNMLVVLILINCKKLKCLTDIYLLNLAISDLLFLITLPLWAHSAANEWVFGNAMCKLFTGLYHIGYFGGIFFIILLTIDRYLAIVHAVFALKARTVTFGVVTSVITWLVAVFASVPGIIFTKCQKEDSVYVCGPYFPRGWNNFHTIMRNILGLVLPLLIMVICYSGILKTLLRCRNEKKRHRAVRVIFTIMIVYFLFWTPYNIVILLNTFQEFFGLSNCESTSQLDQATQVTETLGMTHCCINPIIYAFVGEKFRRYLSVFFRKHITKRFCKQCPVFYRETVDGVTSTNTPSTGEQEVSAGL
The assay can be described thus: Calcium mobilization assay (FLIPR, antagonist activity against MCP-1). The settings on record: Ca mobilisation assay, CHOK1-CCR2B-A5 cells, inhibition of calcium increase induced by 20 nM MCP-1. Type of assay: cell-based. The essentials: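 CHOK1 cells stably overexpressing human CCR2B, loaded with 4 μM Fluo-4 for 2 h at 30° C, compounds added and agonist signal read by FLIPR for 80 s. After 20-30 min at 30° C, 20 nM MCP-1 was added and fluorescence read again. IC50 is 50% inhibition of specific calcium increase (max minus basal).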
(Calcium flux is commonly read through the fluorescence of an indicator in the cells.)
For the compound `C[C@H]1C(=O)N(CCC(C)(C)C(=O)N2CCC3(CC3)[C@H](O)C2)CCN1C(=O)Nc1ccc(OC(F)(F)F)c(Cl)c1` [Example 51, (S)-4-[4-((S)-4-Hydroxy-6-aza-spiro[2.5]oct-6-yl)-3,3-dimethyl-4-oxo-butyl]-2-methyl-3-oxo-piperazine-1-carboxylic acid (3-chloro-4-trifluoromethoxy-phenyl)-amide], the 50% inhibitory concentration (IC50) was 750 nM. Turning to `COC(=O)[C@H](CCC(=O)N1CCC2(CC2)[C@H](O)C1)N1CCN(C(=O)Nc2ccc(C(F)(F)F)c(Cl)c2)[C@@H](C)C1=O` [Example 52, (S)-2-[(S)-4-(3-Chloro-4-trifluoromethyl-phenylcarbamoyl)-3-methyl-2-oxo-piperazin-1-yl]-5-((S)-4-hydroxy-6-aza-spiro[2.5]oct-6-yl)-5-oxo-pentanoic acid methyl ester], the IC50 stood at 738 nM. Take `C[C@H]1C(=O)N([C@H](CO)CCC(=O)N2CCC3(CC3)[C@H](O)C2)CCN1C(=O)Nc1ccc(C(F)(F)F)c(Cl)c1` [Example 53, (S)-4-[(S)-4-((S)-4-Hydroxy-6-aza-spiro[2.5]oct-6-yl)-1-hydroxymethyl-4-oxo-butyl]-2-methyl-3-oxo-piperazine-1-carboxylic acid (3-chloro-4-trifluoromethyl-phenyl)-amide]: the IC50 was found to be 4.3 nM. On to `COC(=O)[C@H](CCC(=O)N1CCC2(CC2)[C@H](O)C1)N1CCN(C(=O)Nc2ccc(OC(F)(F)F)c(Cl)c2)[C@@H](C)C1=O` [Example 54, (S)-2-[(S)-4-(3-Chloro-4-trifluoromethoxy-phenylcarbamoyl)-3-methyl-2-oxo-piperazin-1-yl]-5-((S)-4-hydroxy-6-aza-spiro[2.5]oct-6-yl)-5-oxo-pentanoic acid methyl ester], for which the IC50 is 216 nM.

Consider `C[C@H]1C(=O)N([C@H](CO)CCC(=O)N2CCC3(CC3)[C@H](O)C2)CCN1C(=O)Nc1ccc(OC(F)(F)F)c(Cl)c1` [Example 55, (S)-4-[(S)-4-((S)-4-Hydroxy-6-aza-spiro[2.5]oct-6-yl)-1-hydroxymethyl-4-oxo-butyl]-2-methyl-3-oxo-piperazine-1-carboxylic acid (3-chloro-4-trifluoromethoxy-phenyl)-amide], for which the IC50 was found to be 1.8 nM. Take `C[C@H]1C(=O)N([C@@H](CCC(=O)N2CCC3(CC3)[C@H](O)C2)C(=O)O)CCN1C(=O)Nc1ccc(OC(F)(F)F)c(Cl)c1` [Example 56, Lithium; (S)-2-[(S)-4-(3-chloro-4-trifluoromethoxy-phenylcarbamoyl)-3-methyl-2-oxo-piperazin-1-yl]-5-((S)-4-hydroxy-6-aza-spiro[2.5]oct-6-yl)-5-oxo-pentanoate]: the IC50 is 387 nM. Turning to `C[C@H]1C(=O)N([C@H](CO)CCC(=O)N2CCC3(CC3)[C@H](O)C2)CCN1C(=O)N(C)c1ccc(OC(F)(F)F)c(Cl)c1` [Example 57, (S)-4-[(S)-4-((S)-4-Hydroxy-6-aza-spiro[2.5]oct-6-yl)-1-hydroxymethyl-4-oxo-butyl]-2-methyl-3-oxo-piperazine-1-carboxylic acid (3-chloro-4-trifluoromethoxy-phenyl)-methyl-amide], the half-inhibitory concentration (IC50) worked out at 2570 nM. As for `C[C@H]1C(=O)N(CCCC(=O)N2CCC3(CC3)[C@H](O)C2)CCN1c1ccc(Cl)c(Cl)c1` [Example 59, (S)-4-(3,4-dichloro-phenyl)-1-[4-((S)-4-hydroxy-6-aza-spiro[2.5]oct-6-yl)-4-oxo-butyl]-3-methyl-piperazin-2-one], the figure is 23.2 nM. As for `C[C@H]1C(=O)N(CCCC(=O)N2CCC3(CC3)[C@H](O)C2)CCN1c1ccc(C(F)(F)F)c(Cl)c1` [Example 60, (S)-4-(3-chloro-4-trifluoromethyl-phenyl)-1-[4-((S)-4-hydroxy-6-aza-spiro[2.5]oct-6-yl)-4-oxo-butyl]-3-methyl-piperazin-2-one], the figure is 5 nM.

On to `C[C@H]1C(=O)N(CCCC(=O)N2CCC3(CC3)[C@H](O)C2)CCN1c1ccc(Cl)c(OC(F)(F)F)c1` [Example 62, (S)-4-(4-chloro-3-trifluoromethoxy-phenyl)-1-[4-((S)-4-hydroxy-6-aza-spiro[2.5]oct-6-yl)-4-oxo-butyl]-3-methyl-piperazin-2-one], for which the IC50 worked out at 41.7 nM. As to `C[C@H]1C(=O)N(CCC(=O)N2CCC3(CC3)[C@H](O)C2)CCN1C(=O)/C=C/c1ccc(F)c(Cl)c1` [Example 64, (S)-4-[(E)-3-(3-Chloro-4-fluoro-phenyl)-acryloyl]-1-[3-((S)-4-hydroxy-6-aza-spiro[2.5]oct-6-yl)-3-oxo-propyl]-3-methyl-piperazin-2-one], the 50% inhibitory concentration (IC50) came to 1240 nM.

As for `C[C@@H]1CN(CCCC(=O)N2CCC3(CC3)[C@H](O)C2)C(=O)C=CN1c1ccc(C(F)(F)F)c(Cl)c1` [Example 65, (R)-1-(3-Chloro-4-trifluoromethyl-phenyl)-4-[4-((S)-4-hydroxy-6-aza-spiro[2.5]oct-6-yl)-4-oxo-butyl]-2-methyl-1,2,3,4-tetrahydro-[1,4]diazepin-5-one], the IC50 worked out at 610 nM. `C[C@@H]1CN(CCCC(=O)N2CCC3(CC3)[C@H](O)C2)C(=O)CCN1c1ccc(C(F)(F)F)c(Cl)c1` [Example 66, (R)-1-(3-Chloro-4-trifluoromethyl-phenyl)-4-[4-((S)-4-hydroxy-6-aza-spiro[2.5]oct-6-yl)-4-oxo-butyl]-2-methyl-[1,4]diazepan-5-one]: the half-inhibitory concentration (IC50) was determined as 109 nM.

Take `O=C(/C=C/c1ccc(Cl)c(Cl)c1)N1CCC(=O)N(CCC(=O)N2CCC(CO)CC2)CC1` [Example 69, 1-[(E)-3-(3,4-Dichloro-phenyl)-acryloyl]-4-[3-(4-hydroxymethyl-piperidin-1-yl)-3-oxo-propyl]-[1,4]diazepan-5-one]: the concentration for half-maximal inhibition (IC50) came out at 481 nM.

With `O=C(/C=C/c1ccc(Cl)c(Cl)c1)N1CCC(=O)N(CCC(=O)N2CCC(O)(c3ccccc3)CC2)CC1` [Example 72, 1-[(E)-3-(3,4-Dichloro-phenyl)-acryloyl]-4-[3-(4-hydroxy-4-phenyl-piperidin-1-yl)-3-oxo-propyl)-[1,4]diazepan-5-one], the IC50 was found to be 162 nM. For the compound `CC1(O)CCN(C(=O)CCN2CCN(C(=O)/C=C/c3ccc(Cl)c(Cl)c3)CCC2=O)CC1` [Example 73, 1-[(E)-3-(3,4-Dichloro-phenyl)-acryloyl]-4-[3-(4-hydroxy-4-methyl-piperidin-1-yl)-3-oxo-propyl]-[1,4]diazepan-5-one], the IC50 is 65.9 nM. As for `O=C(/C=C/c1ccc(Cl)c(Cl)c1)N1CCC(=O)N(CCC(=O)N2CCC(O)(c3ccccn3)CC2)CC1` [Example 76, 1-[(E)-3-(3,4-Dichloro-phenyl)-acryloyl]-4-[3-(4'-hydroxy-3′,4′,5′,6′-tetrahydro-2′H-[2,4′]bipyridinyl-1′-yl)-3-oxo-propyl]-[1,4]diazepan-5-one], the figure is 971 nM. As for `O=C(/C=C/c1ccc(Cl)c(Cl)c1)N1CCC(=O)N(CCC(=O)N2CCC(O)(c3cccnc3)CC2)CC1` [Example 77, 1-[(E)-3-(3,4-Dichloro-phenyl)-acryloyl]-4-[3-(4′-hydroxy-3′,4′,5′,6′-tetrohydro-2′H-[3,4′]bipyridinyl-1′-yl)-3-oxo-propyl]-[1,4]diazepan-5-one], the figure is 129 nM; as for `O=C(/C=C/c1ccc(Cl)c(Cl)c1)N1CCC(=O)N(CCC(=O)N2CCC(O)(c3ccncc3)CC2)CC1` [Example 78, 1-[(E)-3-(3,4-Dichloro-phenyl)-acryloyl]-4-[3-(4-hydroxy-3,4,5,6-tetrahydro-2H-[4,4′]bipyridinyl-1-yl)-3-oxo-propyl)-[1,4]diazepan-5-one], 51.2 nM.

`O=C1CCCN(C(=O)CCN2CCN(C(=O)/C=C/c3ccc(Cl)c(Cl)c3)CCC2=O)C1` [Example 79, 1-[(E)-3-(3,4-Dichloro-phenyl)-acryloyl]-4-[3-oxo-3-(3-oxo-piperidin-1-yl)-propyl]-[1,4]diazepan-5-one]: the IC50 amounted to 1820 nM. Turning to `CN1CCN(C(=O)CCN2CCN(C(=O)/C=C/c3ccc(Cl)c(Cl)c3)CCC2=O)CC1=O` [Example 80, 1-[(E)-3-(3,4-Dichloro-phenyl)-acryloyl]-4-[3-(4-methyl-3-oxo-piperazin-1-yl)-3-oxo-propyl]-[1,4]diazepan-5-one], the IC50 was 3250 nM. As for `O=C(/C=C/c1ccc(Cl)c(Cl)c1)N1CCC(=O)N(CCC(=O)N2CCCCC2)CC1` [Example 82, 1-[(E)-3-(3,4-Dichloro-phenyl)-acryloyl]-4-(3-oxo-3-piperidin-l-yl-propyl)-[1,4]diazepan-5-one], the figure is 1830 nM; as for `O=C(/C=C/c1ccc(Cl)c(Cl)c1)N1CCC(=O)N(CCC(=O)N2CCC3(CCCC3)CC2)CC1` [Example 83, 4-[3-(8-Aza-spiro[4.5]dec-8-yl)-3-oxo-propyl]-1-[(E)-3-(3,4-dichloro-phenyl)-acryloyl]-[1,4]diazepan-5-one], 307 nM.

Consider `CC(C)(C)C1(O)CCN(C(=O)CCN2CCN(C(=O)/C=C/c3ccc(Cl)c(Cl)c3)CCC2=O)CC1` [Example 84, 4-[3-(4-tert-Butyl-4-hydroxy-piperidin-1-yl)-3-oxo-propyl]-1-[(E)-3-(3,4-dichloro-phenyl)-acryloyl]-[1,4]diazepan-5-one], for which the IC50 is 47.9 nM. The same measure for `CC1CCN(C(=O)CCN2CCN(C(=O)/C=C/c3ccc(Cl)c(Cl)c3)CCC2=O)CC1` [Example 85, 1-[(E)-3-(3,4-Dichloro-phenyl)-acryloyl]-4-[3-(4-methyl-piperidin-1-yl)-3-oxo-propyl]-[1,4]diazepan-5-one]: 1520 nM.

One may read the IC50 as the concentration that gives 50% inhibition.
